In US8975417B2, “Pyrazolopyrrolidine derivatives and their use in the treatment of disease” (Novartis AG, priority 2013, dated 2015) one finds IC (total growth inhibition) and IC50 data, which are given here for 11 compounds.

As a reminder, the IC50 is the concentration that inhibits the measured activity by half.

One assay concerns MV-4-11 cells. Briefly: Cell growth inhibition assay (CellTiter-Glo), MV-4-11. It is filed as cell-based. The settings on record: Homo sapiens, MV4-11, read-out: MV-4-11 TGI. In short, it runs like this:
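CTG luminescence (cellular ATP) after compound treatment; values background- and day 0-corrected, vehicle (0.1% DMSO) = 100%, medium only = −100%. Dose range: 3-fold dilutions from 10 μM. IC50/TGI by 4-parameter fit.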
In general terms: Cellular ATP, detected with luciferase, serves as a proxy for viable cell number.

For another assay, the target named is His-Brd4(44-477) (Homo sapiens (Human), UniProt O60885). Briefly: TR-FRET in-vitro binding assay for BRD4. The conditions noted are these: biochemical. In outline:
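Bromodomain protein (45 nM in its addition solution) and tetra-acetylated histone H4 peptide (AcK5/8/12/16; 60 nM in its addition solution) were incubated with compounds for 35 min at 30 °C in 50 mM HEPES pH 7.5, 50 mM NaCl, 0.005% Tween20, 0.1% BSA. Eu-anti-His6 plus streptavidin-allophycocyanin detection followed, with TR-FRET read-out.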
On the technique in general: TR-FRET usually uses a lanthanide donor and a delayed reading to cut background.

Assay [1] deals with His-CREBBP (1081-1197) bromodomain (Homo sapiens (Human), UniProt Q92793). Briefly: AlphaScreen in-vitro binding assay for CREBBP. The settings on record: biochemical. In outline:
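Ni-chelate acceptor and streptavidin donor beads (45 µg/mL each, in 50 mM HEPES pH 7.5, 150 mM NaCl, 0.02% BSA) were then added for 60 min at room temperature. IC50 came from 8-point non-linear regression.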
Background: Alpha assays give light when donor and acceptor beads are brought close together.

His-CREBBP (1081-1197) bromodomain, sequence (Q92793 1081-1197): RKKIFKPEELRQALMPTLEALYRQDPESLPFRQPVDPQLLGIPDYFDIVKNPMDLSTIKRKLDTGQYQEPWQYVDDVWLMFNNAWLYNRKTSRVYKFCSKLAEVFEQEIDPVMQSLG

Consider `Cc1nn(C(=O)N(C)C)c2c1[C@@H](c1ccc(Cl)cc1)N(c1cc(C)c3nnc(C)n3c1)C2=O` [Example 149, (R)-4-(4-chlorophenyl)-5-(3,8-dimethyl-[1,2,4]triazolo[4,3-a]pyridin-6-yl)-N,N,3-trimethyl-6-oxo-5,6-dihydropyrrolo[3,4-c]pyrazole-1(4H)-carboxamide], for which the IC (total growth inhibition) with MV-4-11 cells is 0.0505 µM. In addition, the results for the IC50 (at His-Brd4(44-477); in assay [1]) were 30 nM and 6900 nM, respectively.
In the case of `Cc1cc(N2C(=O)c3nn(C(=O)N(C)C)c(C)c3[C@H]2c2ccc(Cl)cc2)cn2c(C)nnc12` [Example 150, (R)-4-(4-chlorophenyl)-5-(3,8-dimethyl-[1,2,4]triazolo[4,3-a]pyridin-6-yl)-N,N,3-trimethyl-6-oxo-5,6-dihydropyrrolo[3,4-c]pyrazole-2(4H)-carboxamide], in the assay with MV-4-11 cells, the IC (total growth inhibition) turned out to be 0.0863 µM. Further, the IC50 is 110 nM at His-Brd4(44-477) and 4600 nM in assay [1].
The like results for `Cc1nn(C2CNC2)c2c1C(c1ccc(Cl)cc1)N(c1cc(C)c3nnc(C)n3c1)C2=O` (stereo not drawn) [Example 151, 1-(azetidin-3-yl)-4-(4-chlorophenyl)-5-(3,8-dimethyl-[1,2,4]triazolo[4,3-a]pyridin-6-yl)-3-methyl-4,5-dihydropyrrolo[3,4-c]pyrazol-6(1H)-one] were, in that order, 0.368 µM, 130 nM and over 37000 nM.
Consider `Cc1cc(N2C(=O)c3nn(C4CNC4)c(C)c3C2c2ccc(Cl)cc2)cn2c(C)nnc12` (stereo not drawn) [Example 152, 2-(azetidin-3-yl)-4-(4-chlorophenyl)-5-(3,8-dimethyl-[1,2,4]triazolo[4,3-a]pyridin-6-yl)-3-methyl-4,5-dihydropyrrolo[3,4-c]pyrazol-6(2H)-one], for which the IC (total growth inhibition) in the assay with MV-4-11 cells is 0.8 µM. Moreover, the IC50 at His-Brd4(44-477) turned out to be 78 nM; in assay [1], 3100 nM.
In the same order, the values of `CC(=O)N1CC(n2nc(C)c3c2C(=O)N(c2cc(C)c(=O)n(C)c2)C3c2ccc(Cl)cc2)C1` (stereo not drawn) [Example 153, 1-(1-acetylazetidin-3-yl)-4-(4-chlorophenyl)-5-(1,5-dimethyl-6-oxo-1,6-dihydropyridin-3-yl)-3-methyl-4,5-dihydropyrrolo[3,4-c]pyrazol-6(1H)-one] are 0.161 µM, 140 nM and 12000 nM.
In the same order, the values of `CC(=O)N1CC(n2nc(C)c3c2C(=O)N(c2cc(C)c4nnc(C)n4c2)C3c2ccc(Cl)cc2)C1` (stereo not drawn) [Example 154, 1-(1-acetylazetidin-3-yl)-4-(4-chlorophenyl)-5-(3,8-dimethyl-[1,2,4]triazolo[4,3-a]pyridin-6-yl)-3-methyl-4,5-dihydropyrrolo[3,4-c]pyrazol-6(1H)-one] are 0.112 µM, 91 nM and over 37000 nM.
Consider `CCOC(=O)N1CC(n2nc(C)c3c2C(=O)N(c2cc(C)c(=O)n(C)c2)C3c2ccc(Cl)cc2)C1` (stereo not drawn) [Example 155, Ethyl 3-(4-(4-chlorophenyl)-5-(1,5-dimethyl-6-oxo-1,6-dihydropyridin-3-yl)-3-methyl-6-oxo-5,6-dihydropyrrolo[3,4-c]pyrazol-1(4H)-yl)azetidine-1-carboxylate], for which the IC (total growth inhibition) in the assay with MV-4-11 cells is 0.117 µM. Further, the IC50 at His-Brd4(44-477) is 87 nM; in assay [1] it was 11000 nM.
As for `CCOC(=O)N1CC(n2nc(C)c3c2C(=O)N(c2cc(C)c4nnc(C)n4c2)C3c2ccc(Cl)cc2)C1` (stereo not drawn) [Example 156, Ethyl 3-(4-(4-chlorophenyl)-5-(3,8-dimethyl-[1,2,4]triazolo[4,3-a]pyridin-6-yl)-3-methyl-6-oxo-5,6-dihydropyrrolo[3,4-c]pyrazol-1(4H)-yl)azetidine-1-carboxylate], the IC (total growth inhibition) with MV-4-11 cells came out at 0.058 µM. Further, the IC50 at His-Brd4(44-477) is 49 nM; in assay [1], over 37000 nM.
The like results for `Cc1nn(C2CN(C)C2)c2c1C(c1ccc(Cl)cc1)N(c1cc(C)c3nnc(C)n3c1)C2=O` (stereo not drawn) [Example 157, 4-(4-chlorophenyl)-5-(3,8-dimethyl-[1,2,4]triazolo[4,3-a]pyridin-6-yl)-3-methyl-1-(1-methylazetidin-3-yl)-4,5-dihydropyrrolo[3,4-c]pyrazol-6(1H)-one] were, in that order, 0.0833 µM, 77 nM and over 37000 nM.
As to `Cc1cc(N2C(=O)c3nn(C4CN(C)C4)c(C)c3C2c2ccc(Cl)cc2)cn2c(C)nnc12` (stereo not drawn) [Example 158, 4-(4-chlorophenyl)-5-(3,8-dimethyl-[1,2,4]triazolo[4,3-a]pyridin-6-yl)-3-methyl-2-(1-methylazetidin-3-yl)-4,5-dihydropyrrolo[3,4-c]pyrazol-6(2H)-one], the IC (total growth inhibition) in the assay with MV-4-11 cells was determined as 0.045 µM. The half-inhibitory concentration (IC50) at His-Brd4(44-477) was 82 nM; in assay [1], 3300 nM.
As to `Cc1nn(C[C@H](O)C(F)(F)F)c2c1[C@@H](c1ccc(Cl)cc1)N(c1cc(C)c3nnc(C)n3c1)C2=O` [Example 167, (R)-4-(4-chlorophenyl)-5-(3,8-dimethyl-[1,2,4]triazolo[4,3-a]pyridin-6-yl)-3-methyl-1-((S)-3,3,3-trifluoro-2-hydroxypropyl)-4,5-dihydropyrrolo[3,4-c]pyrazol-6(1H)-one], the IC (total growth inhibition) in the assay with MV-4-11 cells was determined as 0.0433 µM. The IC50 came to 40 nM at His-Brd4(44-477) and 12000 nM in assay [1].
